PubChem BioAssay (NCI)
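48-hour exposure; five concentrations; linearly interpolated endpoints. At the GI50, growth is halved. At the TGI there is no net growth.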

Key:
Experiment in all cases: NCI-60 cell line screen, 48 h
HL-60(TB) leukemia = system: HL-60(TB) leukemia
ACHN renal = system: ACHN renal
CAKI-1 renal = system: CAKI-1 renal
LOX IMVI melanoma = system: LOX IMVI melanoma
SF-539 CNS = system: SF-539 CNS
HCT-15 colon = system: HCT-15 colon
SK-MEL-5 melanoma = system: SK-MEL-5 melanoma
COLO 205 colon = system: COLO 205 colon
SK-MEL-28 melanoma = system: SK-MEL-28 melanoma
HS 578T breast = system: HS 578T breast

| SMILES | TGI (HL-60(TB) leukemia) [µM] | TGI (ACHN renal) [µM] | TGI (CAKI-1 renal) [µM] | TGI (LOX IMVI melanoma) [µM] | TGI (SF-539 CNS) [µM] | TGI (HCT-15 colon) [µM] | TGI (SK-MEL-5 melanoma) [µM] | TGI (COLO 205 colon) [µM] | TGI (SK-MEL-28 melanoma) [µM] | GI50 (HL-60(TB) leukemia) [µM] | GI50 (ACHN renal) [µM] | GI50 (LOX IMVI melanoma) [µM] | GI50 (SF-539 CNS) [µM] | GI50 (HCT-15 colon) [µM] | GI50 (SK-MEL-5 melanoma) [µM] | GI50 (COLO 205 colon) [µM] | GI50 (SK-MEL-28 melanoma) [µM] | GI50 (HS 578T breast) [µM] | TGI (HS 578T breast) [µM] | GI50 (CAKI-1 renal) [µM] |
| --- | --- | --- | --- | --- | --- | --- | --- | --- | --- | --- | --- | --- | --- | --- | --- | --- | --- | --- | --- | --- |
| COc1ccc2c(c1OCC(=O)O)C(=O)C(CCC(=O)O)CC2 (configuration not stated) | > 100 | > 100 | > 100 | > 100 | > 100 | > 100 | > 100 | > 100 | > 100 | – | – | – | – | – | – | – | – | – | – | – |
| Cc1cc2c(=O)c3ccccc3[nH]c2c(C(N)=O)c1C | – | > 100 | > 100 | > 100 | > 100 | > 100 | > 100 | > 100 | > 100 | – | – | – | – | – | – | – | – | – | – | – |
| O=C1CCC2(c3ccc(Cl)cc3)Nc3cc(Cl)ccc3N12 (configuration not stated) | 12 | 24 | – | 24.5 | 7.32 | 25.3 | 25.2 | 18 | 25.3 | – | – | – | – | – | – | – | – | – | – | – |
| CCCCCCCCCCCCCCCC(=O)OCCOCCOCCOCc1ccccc1 | – | > 100 | > 100 | > 100 | > 100 | – | > 100 | > 100 | > 100 | – | – | – | – | – | – | – | – | – | – | – |
| COC1C(OC(=S)Nc2ccccc2)c2ccccc2N1C(C)=O (configuration not stated) | > 100 | > 100 | > 100 | – | > 100 | > 100 | – | > 100 | > 100 | – | – | – | – | – | – | – | – | – | – | – |
| CC(C)(C)c1cc(C(P(=O)(O)O)P(=O)(O)O)cc(C(C)(C)C)c1O | > 100 | > 100 | > 100 | > 100 | > 100 | > 100 | > 100 | – | > 100 | – | – | – | – | – | – | – | – | – | – | – |
| Cc1cc(N[C@@H]2CCC[C@H](Nc3ccnc4cc(Cl)ccc34)C2)nc(N2CCCCCC2)n1 | 3.47 | 3.82 | – | 2.96 | 3.03 | 2.62 | 3.27 | 2.89 | 3.62 | 1.7 | 1.83 | 1.43 | 1.59 | 1.1 | 1.86 | 1.36 | 1.85 | – | – | – |
| CN1CCC(=O)/C(=C/c2ccccc2)C1 | 41.5 | 32.4 | 33.9 | 14.6 | 33.3 | > 50 | 33.4 | 28.3 | 32.7 | – | – | – | – | – | – | – | – | – | – | – |
| O=C1N=C2Sc3ccc4ccccc4c3N2C1=O | > 100 | 82.3 | 46.2 | 38.2 | 36.6 | 61.9 | 58 | > 100 | 56.3 | – | – | – | – | – | – | – | – | – | – | – |
| CC12CCC(=O)C[C@H]1CCC(OC=O)C2Br (some centres not stated) | > 100 | > 100 | > 100 | > 100 | > 100 | > 100 | > 100 | > 100 | > 100 | – | – | – | – | – | – | – | – | – | – | – |
| COC(=O)/C(C#N)=C1\N=NNN1c1ccc(OC)cc1 | – | > 100 | > 100 | > 100 | > 100 | > 100 | > 100 | > 100 | > 100 | – | – | – | – | – | – | – | – | – | – | – |
| C/C(CC(=O)Nc1ccc(C)c(C)c1)=N\N(c1ccccc1)c1ccccc1 | > 100 | > 100 | > 100 | > 100 | > 100 | > 100 | > 100 | 34.6 | > 100 | – | – | – | – | – | – | – | – | – | – | – |
| COCC(OC)C(CC=C(C#N)C#N)OC (configuration not stated) | > 100 | > 100 | > 100 | > 100 | > 100 | > 100 | > 100 | > 100 | > 100 | – | – | – | – | – | – | – | – | – | – | – |
| CC1(C)COC(c2cccc3c2C(=O)c2cccc(Cl)c2-3)=N1 | > 100 | > 100 | > 100 | > 100 | > 100 | > 100 | 73.4 | > 100 | > 100 | – | – | – | – | – | – | – | – | – | – | – |
| COC(=O)/C(=C/c1ccc(OC)cc1)C(C(=O)O)=C1CCCC1 | > 100 | > 100 | > 100 | > 100 | > 100 | > 100 | > 100 | > 100 | – | – | – | – | – | – | – | – | – | – | – | – |
| COC(=O)C1CCCC2(C1)OCCO2 (configuration not stated) | – | > 100 | > 100 | > 100 | > 100 | > 100 | > 100 | > 100 | > 100 | – | – | – | – | – | – | – | – | – | – | – |
| CCOC(=O)c1ccc(/C(C)=N/NC(N)=S)cc1 | > 100 | > 100 | – | > 100 | > 100 | > 100 | > 100 | > 100 | > 100 | – | – | – | – | – | – | – | – | – | – | – |

| SMILES | TGI (HL-60(TB) leukemia) [µM] | TGI (ACHN renal) [µM] | TGI (CAKI-1 renal) [µM] | TGI (LOX IMVI melanoma) [µM] | TGI (SF-539 CNS) [µM] | TGI (HCT-15 colon) [µM] | TGI (SK-MEL-5 melanoma) [µM] | TGI (COLO 205 colon) [µM] | TGI (SK-MEL-28 melanoma) [µM] | GI50 (HL-60(TB) leukemia) [µM] | GI50 (ACHN renal) [µM] | GI50 (LOX IMVI melanoma) [µM] | GI50 (SF-539 CNS) [µM] | GI50 (HCT-15 colon) [µM] | GI50 (SK-MEL-5 melanoma) [µM] | GI50 (COLO 205 colon) [µM] | GI50 (SK-MEL-28 melanoma) [µM] | GI50 (HS 578T breast) [µM] | TGI (HS 578T breast) [µM] | GI50 (CAKI-1 renal) [µM] |
| --- | --- | --- | --- | --- | --- | --- | --- | --- | --- | --- | --- | --- | --- | --- | --- | --- | --- | --- | --- | --- |
| COC(=O)/C(=N\NC(N)=S)C(C(=O)OC)C(=O)C(=O)Nc1ccc(C)cc1 (configuration not stated) | > 100 | > 100 | > 100 | > 100 | > 100 | > 100 | > 100 | > 100 | > 100 | – | – | – | – | – | – | – | – | – | – | – |
| Cc1ccc2nc(/C(=C/c3ccc(/C=C(\NC(=O)c4ccccc4)c4nc5ccc(C)cc5[nH]4)c(C)c3)NC(=O)c3ccccc3)[nH]c2c1 | – | > 100 | 91.3 | – | 28.9 | > 100 | 33.5 | 80.4 | 44.1 | – | – | – | – | – | – | – | – | – | – | – |
| CC(C)C1=Cc2ccc3c(c2C(=O)C1=O)CCCC3(C)C | > 100 | 13 | 6.69 | 24.7 | 11 | 4.42 | 24.9 | 14.5 | 13.1 | – | – | – | – | – | – | – | – | – | – | – |
| CN(C)C(=S)/N=c1\sn(C)/c(=N\C(=S)N(C)C)n1C | > 100 | > 100 | > 100 | > 100 | > 100 | > 100 | > 100 | > 100 | > 100 | – | – | – | – | – | – | – | – | – | – | – |
| O=C(CC1C(=O)Nc2ccccc2S1=O)Nc1cc(Cl)ccc1Cl (configuration not stated) | > 100 | > 100 | > 100 | > 100 | > 100 | > 100 | > 100 | – | > 100 | – | – | – | – | – | – | – | – | – | – | – |
| Cc1nc(N)sc1N=Nc1ccccc1Br | > 75.9 | > 86 | 81.8 | > 66.1 | > 59.5 | 69.8 | 48.6 | > 93 | > 88.1 | – | – | – | – | – | – | – | – | – | – | – |
| C#CC1/C(=C\C(=O)OC)CCCC1O (configuration not stated) | > 100 | > 100 | > 100 | – | > 100 | > 100 | > 100 | > 100 | – | – | – | – | – | – | – | – | – | – | – | – |
| O=C(/C(=C/c1ccc(Cl)cc1)c1ccccc1)c1ccccc1 | 66.5 | 39.5 | – | 29 | 31.3 | 30.6 | – | 33 | 30.6 | – | – | – | – | – | – | – | – | – | – | – |
| COc1c(O)c2c(=O)cc3c4c5c(cc(=O)c6c(O)c(OC)c(CC(C)O)c(c(c1CC(C)O)c24)c65)OCO3 (configuration not stated) | 5.1 | 5.96 | 24.3 | 2.28 | 4.31 | 4.13 | 2.94 | 0.765 | 4.23 | – | – | – | – | – | – | – | – | – | – | – |
| CC1(C)OC2C(CO[Si](C)(C)C(C)(C)C)OC(n3c(I)c(C#C[Si](C)(C)C)c(=O)[nH]c3=O)C2O1 (configuration not stated) | 15.2 | 26.4 | – | 11.1 | 28.9 | 15.4 | 26.2 | 2.94 | 3.56 | 2.35 | 12.9 | 3.01 | 15.4 | 2.39 | 13.4 | 1.59 | 1.83 | 16.8 | 51.1 | – |
| Cc1ccc(C)c(NC(=O)c2cccc([N+](=O)[O-])c2O)c1 | > 100 | 57.6 | > 100 | 53.5 | > 100 | > 100 | 25.2 | 31.1 | > 100 | – | – | – | – | – | – | – | – | – | – | – |
| O=[N+]([O-])c1ccc2occ3c2c1CCC3 | > 100 | > 100 | – | > 100 | > 100 | > 100 | > 100 | > 100 | > 100 | – | – | – | – | – | – | – | – | – | – | – |
| N#CC(C(=O)/C(=N\NC(N)=O)C(C#N)c1ccc(Cl)cc1)c1ccc(Cl)cc1 (configuration not stated) | > 100 | > 100 | – | > 100 | > 100 | > 100 | > 100 | > 100 | > 100 | – | – | – | – | – | – | – | – | – | – | – |
| O=C(Nc1cccc(Cl)c1)C(=O)C(C(=O)c1ccc2ccccc2c1)C1OC(=O)c2ccccc21 (configuration not stated) | 40.7 | 82.7 | 67.6 | 44.5 | – | – | 30.3 | 38.1 | 25.8 | – | – | – | – | – | – | – | – | – | – | – |
| NC1CCN(Cc2ccccc2)CC1 | > 100 | > 100 | > 100 | > 100 | 6.21 | > 100 | > 100 | > 100 | – | > 100 | > 100 | > 100 | 2.27 | > 100 | 24.2 | > 100 | – | – | – | > 100 |
| Nc1ncn([C@@H]2O[C@H](CO)[C@@H](O)[C@H]2O)c(=O)n1 | 4.91 | 16.7 | 3.25 | 2.1 | – | 21.1 | 7.04 | 3.02 | 11.1 | 0.699 | 0.664 | 0.292 | – | 1.6 | 2.15 | 1.21 | 2.68 | – | – | 0.275 |
| Cc1ccccc1C(=O)c1cc(O)ccc1O | > 100 | > 100 | > 100 | – | > 100 | > 100 | > 100 | > 100 | – | – | – | – | – | – | – | – | – | – | – | – |
